Source: patent publication US10815230B2, “Casein kinase 1 delta inhibitor” (ELECTROPHORETICS LIMITED, priority 2015, dated 2020)

Tests used:
Test in all cases: Kinase selectivity, % remaining activity
Format in all cases: biochemical
Details in all cases: 10 μM compound, 10 μM ATP, duplicate
RIPK2 = RIPK2 (Homo sapiens, UniProt O43353)
Method: (§1) A two-tier strategy to determine the selectivity of compound A was applied: first, the compound was tested at a single concentration (in duplicate) to determine the %-remaining activity of the target kinase. Subsequently, the IC50 of compound A and comparative compounds for casein kinase 1 delta were determined.
(§2) Compounds were tested in single dose duplicate mode at a concentration of 10 μM (in DMSO) and reactions were carried out at 10 μM ATP, Table 3 reports the % of remaining activity (relative to DMSO).

YES/YES1 = YES/YES1 (Homo sapiens, UniProt P07947)
Method: as §1, §2

PKA = PKA (Homo sapiens, UniProt P17612)
Method: as §1, §2

CK1g3 = CK1g3 (Homo sapiens, UniProt Q9Y6M4)
Method: as §1, §2

PKCb2 = PKCb2 (Homo sapiens, UniProt P05771)
Method: as §1, §2

ALK5/TGFBR1 = molecular target: T1, ALK5/TGFBR1 (Homo sapiens, UniProt P36897)
T1 sequence (P36897 34-503): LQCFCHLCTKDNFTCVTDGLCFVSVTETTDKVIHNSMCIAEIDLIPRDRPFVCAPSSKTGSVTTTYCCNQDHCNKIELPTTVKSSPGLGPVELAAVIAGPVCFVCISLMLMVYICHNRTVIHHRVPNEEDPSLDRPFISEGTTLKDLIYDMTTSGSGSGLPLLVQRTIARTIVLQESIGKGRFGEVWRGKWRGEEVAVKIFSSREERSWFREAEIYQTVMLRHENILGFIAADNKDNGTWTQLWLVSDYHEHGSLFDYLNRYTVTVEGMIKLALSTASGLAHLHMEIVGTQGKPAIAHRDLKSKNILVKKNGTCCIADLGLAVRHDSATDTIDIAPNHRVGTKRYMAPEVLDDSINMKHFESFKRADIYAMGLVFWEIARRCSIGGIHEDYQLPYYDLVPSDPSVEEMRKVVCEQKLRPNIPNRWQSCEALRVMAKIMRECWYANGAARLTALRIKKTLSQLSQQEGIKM
Method: as §1, §2

CDK5/p25 = CDK5/p25 (Homo sapiens, UniProt Q00535)
Sequence of CDK5/p25 (Q00535 whole entry, species assumed): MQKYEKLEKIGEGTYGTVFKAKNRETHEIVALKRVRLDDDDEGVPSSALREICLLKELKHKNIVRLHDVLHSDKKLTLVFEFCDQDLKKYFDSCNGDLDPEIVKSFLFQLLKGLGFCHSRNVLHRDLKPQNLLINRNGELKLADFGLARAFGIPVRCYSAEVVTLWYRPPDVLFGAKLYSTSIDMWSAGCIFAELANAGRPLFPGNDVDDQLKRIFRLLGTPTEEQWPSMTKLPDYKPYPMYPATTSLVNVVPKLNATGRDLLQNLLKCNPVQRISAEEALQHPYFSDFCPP
Method: as §1, §2

P38a/MAPK14 = P38a/MAPK14 (Homo sapiens, UniProt Q16539)
Sequence of P38a/MAPK14 (Q16539 whole entry): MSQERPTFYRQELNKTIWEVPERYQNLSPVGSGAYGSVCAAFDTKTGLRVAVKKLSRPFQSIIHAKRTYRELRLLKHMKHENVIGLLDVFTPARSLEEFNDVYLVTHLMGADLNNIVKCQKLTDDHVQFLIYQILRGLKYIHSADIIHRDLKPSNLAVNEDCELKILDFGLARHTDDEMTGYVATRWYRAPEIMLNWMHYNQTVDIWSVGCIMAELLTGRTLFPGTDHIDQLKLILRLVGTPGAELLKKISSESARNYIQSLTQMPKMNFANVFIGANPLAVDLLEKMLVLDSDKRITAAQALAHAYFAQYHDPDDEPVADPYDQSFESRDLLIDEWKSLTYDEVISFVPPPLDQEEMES
Method: as §1, §2

JNK2 = JNK2 (Homo sapiens, UniProt P45984)
Method: as §1, §2

LCK = LCK (Homo sapiens, UniProt P06239)
Method: as §1, §2

EGFR = EGFR (Homo sapiens, UniProt P00533)
Method: as §1, §2

MSK1/RPS6KA5 = MSK1/RPS6KA5 (Homo sapiens, UniProt O75582)
Sequence of MSK1/RPS6KA5 (O75582 whole entry): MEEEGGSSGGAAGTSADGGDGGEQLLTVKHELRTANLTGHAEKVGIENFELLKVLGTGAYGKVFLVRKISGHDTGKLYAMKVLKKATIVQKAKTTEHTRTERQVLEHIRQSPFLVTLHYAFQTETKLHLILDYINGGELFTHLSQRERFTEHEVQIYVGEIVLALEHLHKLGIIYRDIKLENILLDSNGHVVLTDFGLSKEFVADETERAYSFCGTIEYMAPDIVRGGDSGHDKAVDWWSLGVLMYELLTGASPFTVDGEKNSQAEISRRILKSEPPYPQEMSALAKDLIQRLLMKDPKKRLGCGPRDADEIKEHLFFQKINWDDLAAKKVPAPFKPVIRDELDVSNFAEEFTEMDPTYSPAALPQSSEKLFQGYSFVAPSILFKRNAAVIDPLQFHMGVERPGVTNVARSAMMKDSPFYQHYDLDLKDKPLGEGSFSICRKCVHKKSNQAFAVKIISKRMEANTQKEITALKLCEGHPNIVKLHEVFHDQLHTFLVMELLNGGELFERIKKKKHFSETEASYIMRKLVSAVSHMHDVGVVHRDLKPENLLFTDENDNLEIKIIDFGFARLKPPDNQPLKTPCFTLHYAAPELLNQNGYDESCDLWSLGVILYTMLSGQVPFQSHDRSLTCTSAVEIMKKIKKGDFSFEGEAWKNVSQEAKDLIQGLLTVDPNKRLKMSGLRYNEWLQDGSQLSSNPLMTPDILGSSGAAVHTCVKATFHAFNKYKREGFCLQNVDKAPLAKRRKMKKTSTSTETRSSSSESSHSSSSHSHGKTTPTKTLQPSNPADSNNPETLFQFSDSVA
Method: as §1, §2

PDK1/PDPK1 = molecular target: T2, PDK1/PDPK1 (Homo sapiens, UniProt O15530)
T2 sequence (O15530 1-556): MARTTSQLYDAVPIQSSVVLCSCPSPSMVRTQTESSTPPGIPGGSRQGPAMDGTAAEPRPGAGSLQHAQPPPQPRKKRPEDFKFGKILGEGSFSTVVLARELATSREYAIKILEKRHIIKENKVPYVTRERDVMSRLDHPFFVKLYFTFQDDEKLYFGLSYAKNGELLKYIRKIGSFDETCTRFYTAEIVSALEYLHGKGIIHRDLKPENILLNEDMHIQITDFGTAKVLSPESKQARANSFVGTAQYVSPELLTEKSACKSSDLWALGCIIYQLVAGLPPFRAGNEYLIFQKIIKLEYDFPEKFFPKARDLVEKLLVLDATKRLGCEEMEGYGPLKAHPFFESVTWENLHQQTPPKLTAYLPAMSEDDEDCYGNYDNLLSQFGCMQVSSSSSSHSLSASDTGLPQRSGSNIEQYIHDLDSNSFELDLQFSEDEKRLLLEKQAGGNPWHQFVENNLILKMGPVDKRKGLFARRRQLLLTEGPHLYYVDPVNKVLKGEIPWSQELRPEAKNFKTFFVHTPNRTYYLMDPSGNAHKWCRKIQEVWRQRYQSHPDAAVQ
Method: as §1, §2

GSK3B = GSK3B (Homo sapiens, UniProt P49841)
Sequence of GSK3B (P49841 whole entry): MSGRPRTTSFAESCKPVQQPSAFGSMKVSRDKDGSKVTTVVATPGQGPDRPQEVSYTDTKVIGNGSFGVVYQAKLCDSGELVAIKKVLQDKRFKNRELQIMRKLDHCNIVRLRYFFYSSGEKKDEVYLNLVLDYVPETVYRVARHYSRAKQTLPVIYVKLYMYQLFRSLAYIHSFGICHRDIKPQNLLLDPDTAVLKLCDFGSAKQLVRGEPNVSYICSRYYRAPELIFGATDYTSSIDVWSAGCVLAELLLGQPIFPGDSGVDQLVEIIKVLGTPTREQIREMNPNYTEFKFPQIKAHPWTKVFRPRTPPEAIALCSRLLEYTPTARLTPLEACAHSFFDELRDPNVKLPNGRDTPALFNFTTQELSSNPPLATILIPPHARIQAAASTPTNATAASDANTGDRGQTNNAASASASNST
Method: as §1, §2

KDR/VEGFR2 = KDR/VEGFR2 (Homo sapiens, UniProt P35968)
Sequence of KDR/VEGFR2 (P35968 20-1356): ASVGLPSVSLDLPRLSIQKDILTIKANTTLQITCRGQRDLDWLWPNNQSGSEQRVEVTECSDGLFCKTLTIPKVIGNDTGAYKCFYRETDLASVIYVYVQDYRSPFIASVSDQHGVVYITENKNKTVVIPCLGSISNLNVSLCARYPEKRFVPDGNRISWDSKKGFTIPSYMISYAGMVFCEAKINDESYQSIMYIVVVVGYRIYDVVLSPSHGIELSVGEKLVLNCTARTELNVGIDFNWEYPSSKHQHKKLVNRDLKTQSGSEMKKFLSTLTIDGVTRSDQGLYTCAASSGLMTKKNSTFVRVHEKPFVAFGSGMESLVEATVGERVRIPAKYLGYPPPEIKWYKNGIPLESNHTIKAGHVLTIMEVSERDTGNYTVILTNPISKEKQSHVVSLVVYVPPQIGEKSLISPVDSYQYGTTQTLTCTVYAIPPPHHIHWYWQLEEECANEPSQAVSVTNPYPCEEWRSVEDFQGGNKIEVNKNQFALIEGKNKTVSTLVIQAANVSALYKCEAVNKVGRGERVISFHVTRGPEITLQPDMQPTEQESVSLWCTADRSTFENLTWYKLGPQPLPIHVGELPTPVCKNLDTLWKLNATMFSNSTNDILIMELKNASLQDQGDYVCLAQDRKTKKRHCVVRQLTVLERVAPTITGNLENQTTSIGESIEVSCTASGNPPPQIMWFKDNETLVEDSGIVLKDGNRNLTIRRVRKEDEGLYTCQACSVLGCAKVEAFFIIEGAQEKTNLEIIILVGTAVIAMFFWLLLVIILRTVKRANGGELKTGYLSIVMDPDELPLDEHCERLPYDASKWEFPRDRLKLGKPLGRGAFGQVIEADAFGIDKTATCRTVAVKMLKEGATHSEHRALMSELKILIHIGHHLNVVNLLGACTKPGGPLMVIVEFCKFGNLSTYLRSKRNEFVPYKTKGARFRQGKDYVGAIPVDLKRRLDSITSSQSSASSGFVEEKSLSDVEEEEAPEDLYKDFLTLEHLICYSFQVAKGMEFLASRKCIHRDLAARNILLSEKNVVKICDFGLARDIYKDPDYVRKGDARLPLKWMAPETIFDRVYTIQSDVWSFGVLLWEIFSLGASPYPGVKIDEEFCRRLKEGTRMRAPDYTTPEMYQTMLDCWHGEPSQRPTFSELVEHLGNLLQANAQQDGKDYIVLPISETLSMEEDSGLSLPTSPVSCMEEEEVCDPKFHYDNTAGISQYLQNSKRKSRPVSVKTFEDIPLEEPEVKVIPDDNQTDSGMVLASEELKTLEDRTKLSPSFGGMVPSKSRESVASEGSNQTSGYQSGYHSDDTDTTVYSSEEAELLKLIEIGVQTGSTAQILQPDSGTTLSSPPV
Method: as §1, §2

CLK2 = CLK2 (Homo sapiens, UniProt P49760)
Sequence of CLK2 (P49760 whole entry): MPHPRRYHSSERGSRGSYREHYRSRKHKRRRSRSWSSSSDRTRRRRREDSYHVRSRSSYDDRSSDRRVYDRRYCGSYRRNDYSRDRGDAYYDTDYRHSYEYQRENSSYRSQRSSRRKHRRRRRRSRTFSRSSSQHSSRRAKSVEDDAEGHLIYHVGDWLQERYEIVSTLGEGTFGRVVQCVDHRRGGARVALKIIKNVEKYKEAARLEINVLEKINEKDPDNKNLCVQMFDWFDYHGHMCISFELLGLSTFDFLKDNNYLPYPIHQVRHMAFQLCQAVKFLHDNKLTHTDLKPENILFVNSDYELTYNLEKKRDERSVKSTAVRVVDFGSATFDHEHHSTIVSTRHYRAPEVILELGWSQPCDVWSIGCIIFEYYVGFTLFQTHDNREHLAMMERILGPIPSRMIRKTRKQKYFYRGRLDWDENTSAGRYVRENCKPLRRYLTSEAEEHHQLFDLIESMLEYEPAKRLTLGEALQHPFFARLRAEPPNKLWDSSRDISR
Method: as §1, §2

CK1g2 = CK1g2 (Homo sapiens, UniProt P78368)
Sequence of CK1g2 (P78368 whole entry, species assumed): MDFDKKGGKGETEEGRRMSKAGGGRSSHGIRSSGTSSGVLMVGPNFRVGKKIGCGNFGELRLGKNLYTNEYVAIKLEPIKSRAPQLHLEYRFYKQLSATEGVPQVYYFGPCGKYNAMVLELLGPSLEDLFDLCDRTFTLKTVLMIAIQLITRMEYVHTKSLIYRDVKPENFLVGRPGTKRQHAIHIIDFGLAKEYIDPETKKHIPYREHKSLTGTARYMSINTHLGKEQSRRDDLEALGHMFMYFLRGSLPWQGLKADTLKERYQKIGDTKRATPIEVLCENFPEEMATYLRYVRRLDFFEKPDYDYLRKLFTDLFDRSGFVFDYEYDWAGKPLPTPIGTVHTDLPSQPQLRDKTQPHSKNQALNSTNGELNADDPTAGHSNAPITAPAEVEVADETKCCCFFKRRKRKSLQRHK
Method: as §1, §2

EPHA2 = EPHA2 (Homo sapiens, UniProt P29317)
Method: as §1, §2

CK1g1 = CK1g1 (Homo sapiens, UniProt Q9HCP0)
Method: as §1, §2

CK1e = CK1e (Homo sapiens, UniProt P49674)
Method: as §1, §2

PIM3 = PIM3 (Homo sapiens, UniProt Q86V86)
Method: as §1, §2

TNIK = TNIK (Homo sapiens, UniProt Q9UKE5)
Method: as §1, §2

[1] = read-out: % of remaining activity (relative to DMSO)

Sequence of RIPK2 (O43353 whole entry): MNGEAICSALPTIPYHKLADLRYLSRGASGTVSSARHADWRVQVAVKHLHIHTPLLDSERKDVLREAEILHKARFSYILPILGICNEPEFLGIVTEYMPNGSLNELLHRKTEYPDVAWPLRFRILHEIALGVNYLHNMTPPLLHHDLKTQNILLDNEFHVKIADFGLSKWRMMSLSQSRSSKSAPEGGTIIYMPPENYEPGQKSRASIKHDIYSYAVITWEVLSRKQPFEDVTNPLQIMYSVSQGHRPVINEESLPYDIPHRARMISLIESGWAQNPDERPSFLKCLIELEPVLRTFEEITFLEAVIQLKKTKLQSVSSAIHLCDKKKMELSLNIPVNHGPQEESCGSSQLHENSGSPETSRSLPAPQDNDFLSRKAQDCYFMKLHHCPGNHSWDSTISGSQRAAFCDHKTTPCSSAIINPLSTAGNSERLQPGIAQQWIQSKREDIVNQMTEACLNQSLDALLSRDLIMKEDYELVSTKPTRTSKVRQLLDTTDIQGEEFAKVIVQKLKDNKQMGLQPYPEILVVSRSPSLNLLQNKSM

Nc1ncc(-c2nc3ccccc3o2)c(-c2ccncc2)n1 [Comparative Compound 324, 5-(1,3-benzoxazol-2-yl)-4-(pyridine-4-yl)pyrimidin-2-amine]
% of remaining activity (relative to DMSO) (RIPK2; listed as Cmp 324): 92.78%
remaining activity at 10 µM (RIPK2; [1]): 92.2%
% of remaining activity (relative to DMSO) (YES/YES1; listed as Cmp 324): 95.22%
remaining activity at 10 µM (YES/YES1; [1]): 108%
% of remaining activity (relative to DMSO) (PKA; listed as Cmp 324): 90.27%
remaining activity at 10 µM (PKA; [1]): 90.8%
% of remaining activity (relative to DMSO) (CK1g3; listed as Cmp 324): 62.63%
remaining activity at 10 µM (CK1g3; [1]): 69.9%
% of remaining activity (relative to DMSO) (PKCb2; listed as Cmp 324): 103.51%
remaining activity at 10 µM (PKCb2; [1]): 101%
% of remaining activity (relative to DMSO) (ALK5/TGFBR1; listed as Cmp 324): 101.71%
remaining activity at 10 µM (ALK5/TGFBR1; [1]): 105%
% of remaining activity (relative to DMSO) (CDK5/p25; listed as Cmp 324): 97.13%
remaining activity at 10 µM (CDK5/p25; [1]): 87.7%
% of remaining activity (relative to DMSO) (P38a/MAPK14; listed as Cmp 324): 48.46%
remaining activity at 10 µM (P38a/MAPK14; [1]): 53.9%
% of remaining activity (relative to DMSO) (JNK2; listed as Cmp 324): 91.75%
remaining activity at 10 µM (JNK2; [1]): 95.1%
% of remaining activity (relative to DMSO) (LCK; listed as Cmp 324): 95.46%
remaining activity at 10 µM (LCK; [1]): 102%
% of remaining activity (relative to DMSO) (EGFR; listed as Cmp 324): 79.83%
remaining activity at 10 µM (EGFR; [1]): 83.8%
% of remaining activity (relative to DMSO) (MSK1/RPS6KA5; listed as Cmp 324): 94.78%
remaining activity at 10 µM (MSK1/RPS6KA5; [1]): 81.1%
% of remaining activity (relative to DMSO) (PDK1/PDPK1; listed as Cmp 324): 104.88%
remaining activity at 10 µM (PDK1/PDPK1; [1]): 105%
% of remaining activity (relative to DMSO) (GSK3B; listed as Cmp 324): 80.19%
remaining activity at 10 µM (GSK3B; [1]): 91.3%
% of remaining activity (relative to DMSO) (KDR/VEGFR2; listed as Cmp 324): 100.01%
remaining activity at 10 µM (KDR/VEGFR2; [1]): 85.1%
% of remaining activity (relative to DMSO) (CLK2; listed as Cmp 324): 92.16%
remaining activity at 10 µM (CLK2; [1]): 96.2%
% of remaining activity (relative to DMSO) (CK1g2; listed as Cmp 324): 58.69%
remaining activity at 10 µM (CK1g2; [1]): 58%
% of remaining activity (relative to DMSO) (EPHA2; listed as Cmp 324): 105.62%
remaining activity at 10 µM (EPHA2; [1]): 98.7%
% of remaining activity (relative to DMSO) (CK1g1; listed as Cmp 324): 92.69%
remaining activity at 10 µM (CK1g1; [1]): 99%
% of remaining activity (relative to DMSO) (CK1e; listed as Cmp 324): 24.86%
remaining activity at 10 µM (CK1e; [1]): 28.2%
% of remaining activity (relative to DMSO) (PIM3; listed as Cmp 324): 95.35%
remaining activity at 10 µM (PIM3; [1]): 100%
% of remaining activity (relative to DMSO) (TNIK; listed as Cmp 324): 65.72%
remaining activity at 10 µM (TNIK; [1]): 74.6%
